In paper PMC12814185, “Receptor-Mediated Shuttling of a D‑Amino Acid Peptide Achieves High Nanomolar Cytosolic Concentrations” (Journal of the American Chemical Society, 2025):

Test system: HEK293 cells
Test: Resazurin based cell viability assay, Nutlin-3a
Conditions: 72 h incubation, HEK293 and HEK293_CMKLR1-eYFP
Method: performed in DMEM with 10% FBS due to its higher pH buffering capacity compared to DMEM/F12 with […]
Calcium flux assay was performed with cells expressing CMKLR1 and the chimeric G protein Δ6Gαqi4myr.
The stably transfected COS-7_CMKLR1-eYFP_ Δ6Gαqi4myr cells were seeded at 25,000 cells per well into poly-ᴅ-lysine-coated 96-well plates (black µCLEAR, Greiner). The next day, cells were incubated with 2.3 µM Fluo-2-AM (Abcam) and 0.06% (v/v) Pluronic-F127 (Sigma) in assay buffer (2.5 mM probenecid (Sigma), 20 mM 4-(2-hydroxyethyl)-1-piperazineethanesulfonic acid (HEPES, Sigma) in Hanks' Balanced Salt Solution (HBSS, Biowest), pH 7.5) for 1 h. This solution was replaced by assay buffer, and basal Ca2+ signal (λex = 485 nm, λem = 525 nm) was measured for 20 s with a Flexstation 3 plate reader (Molecular Devices). Peptide dilutions were added, and the Ca2+ response was measured for 40 s. The maximum signal over baseline was calculated and normalized to peptide 1 (N3-cC9). Non-linear regression was performed using Prism 10 (GraphPad). Experiments were performed in technical duplicates and at least […]
Cells were then washed and a resazurin-based cell viability assay was performed. […] After 2h incubation, cell viability wa s measured using the fluorescence of resorufin (λex = 550 nm, λem = 595 nm). […]
Peptide internalization was evaluated by fluorescence microscopy. […]

## COc1ccc(C2=N[C@@H](c3ccc(Cl)cc3)[C@@H](c3ccc(Cl)cc3)N2C(=O)N2CCNC(=O)C2)c(OC(C)C)c1 [nutlin-3a]
  cytotoxicity: noncytotoxic response
